According to PubChem BioAssay AID1918930 (Molecular Pharmacology Branch, DTP, NCI, 2023):

Test system: 233499-124-R-J3-PDC complex spheroid viability, % test/control
Test: Anticancer human tumor 233499-124-R-J3-PDC patient-derived colon adenocarcinoma cell line growth inhibition
Settings: for IC50: curve of first compound; for viability, T/C: stronger effect = lower value
Method in brief: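 Drug combinations with the LSD1 inhibitor iadademstat tested on tumor cells co-cultured as spheroids with endothelial cells and mesenchymal stem cells. Concentrations descended in half-log increments from clinical Cmax or 10 microM.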

[1] = second compound 0.1 µM, first compound 0.000949 µM
[2] = second compound 0.1 µM, first compound 0.003 µM
[3] = second compound 0.1 µM, first compound 0.00949 µM
[4] = second compound 0.1 µM, first compound 0.03 µM
[5] = second compound 0.1 µM, first compound 0.0949 µM
[6] = second compound 0.1 µM, first compound 0.3 µM
[7] = second compound 0.316 µM, first compound 0.000949 µM
[8] = second compound 0.316 µM, first compound 0.003 µM
[9] = second compound 0.316 µM, first compound 0.00949 µM
[10] = second compound 0.316 µM, first compound 0.03 µM
[11] = second compound 0.316 µM, first compound 0.0949 µM
[12] = second compound 0.316 µM, first compound 0.3 µM
[13] = second compound 1 µM, first compound 0.000949 µM
[14] = second compound 1 µM, first compound 0.003 µM
[15] = second compound 1 µM, first compound 0.00949 µM
[16] = second compound 1 µM, first compound 0.03 µM
[17] = second compound 1 µM, first compound 0.0949 µM
[18] = second compound 1 µM, first compound 0.3 µM
[19] = second compound 3.16 µM, first compound 0.000949 µM
[20] = second compound 3.16 µM, first compound 0.003 µM
[21] = second compound 3.16 µM, first compound 0.00949 µM
[22] = second compound 3.16 µM, first compound 0.03 µM
[23] = second compound 3.16 µM, first compound 0.0949 µM
[24] = second compound 3.16 µM, first compound 0.3 µM
[25] = second compound 10 µM, first compound 0.000949 µM
[26] = second compound 10 µM, first compound 0.003 µM
[27] = second compound 10 µM, first compound 0.00949 µM
[28] = second compound 10 µM, first compound 0.03 µM
[29] = second compound 10 µM, first compound 0.0949 µM
[30] = second compound 10 µM, first compound 0.3 µM
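Also: spheroids exposed to agents for one week before readout.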

Compound: CCc1c2c(nc3ccc(O)cc13)-c1cc3c(c(=O)n1C2)COC(=O)[C@]3(O)CC + NC1CCC(NC2CC2c2ccccc2)CC1
- IC50 (second compound 0.1 µM): 25 nM
- IC50 (second compound 0.316 µM): 27.5 nM
- IC50 (second compound 1 µM): 29.4 nM
- IC50 (second compound 3.16 µM): 37.1 nM
- IC50 (second compound 10 µM): 40.5 nM
- viability, T/C [1]: 80.5%
- viability, T/C [2]: 99.5%
- viability, T/C [3]: 89.6%
- viability, T/C [4]: 42.6%
- viability, T/C [5]: 19.8%
- viability, T/C [6]: 20.4%
- viability, T/C [7]: 99.6%
- viability, T/C [8]: 92.2%
- viability, T/C [9]: 107%
- viability, T/C [10]: 46%
- viability, T/C [11]: 28.6%
- viability, T/C [12]: 12.8%
- viability, T/C [13]: 72.6%
- viability, T/C [14]: 89.5%
- viability, T/C [15]: 95.6%
- viability, T/C [16]: 49.3%
- viability, T/C [17]: 16.8%
- viability, T/C [18]: 13.2%
- viability, T/C [19]: 90.8%
- viability, T/C [20]: 92.1%
- viability, T/C [21]: 99.7%
- viability, T/C [22]: 56%
- viability, T/C [23]: 28.5%
- viability, T/C [24]: 18.2%
- viability, T/C [25]: 72.3%
- viability, T/C [26]: 78.3%
- viability, T/C [27]: 93.2%
- viability, T/C [28]: 58.8%
- viability, T/C [29]: 27.1%
- viability, T/C [30]: 22.9%

Compound: Nc1ccn(C2OC(CO)C(O)C2(F)F)c(=O)n1 (stereo not given) + NC1CCC(NC2CC2c2ccccc2)CC1
- IC50 (second compound 0.1 µM): 2.48 nM
- IC50 (second compound 0.316 µM): 4.47 nM
- IC50 (second compound 1 µM): 6.13 nM
- IC50 (second compound 3.16 µM): 1.07 nM
- IC50 (second compound 10 µM): < 0.949 nM
- viability, T/C [1]: 100%
- viability, T/C [2]: 35.6%
- viability, T/C [3]: 43.9%
- viability, T/C [4]: 21.9%
- viability, T/C [5]: 30.3%
- viability, T/C [6]: 21.1%
- viability, T/C [7]: 99.4%
- viability, T/C [8]: 58.8%
- viability, T/C [9]: 22.2%
- viability, T/C [10]: 32.3%
- viability, T/C [11]: 37.9%
- viability, T/C [12]: 41.5%
- viability, T/C [13]: 88.7%
- viability, T/C [14]: 62.1%
- viability, T/C [15]: 44.4%
- viability, T/C [16]: 31.1%
- viability, T/C [17]: 26.6%
- viability, T/C [18]: 35.1%
- viability, T/C [19]: 51.4%
- viability, T/C [20]: 40.9%
- viability, T/C [21]: 36.9%
- viability, T/C [22]: 47.2%
- viability, T/C [23]: 18.9%
- viability, T/C [24]: 39.5%
- viability, T/C [25]: 59.2%
- viability, T/C [26]: 29.7%
- viability, T/C [27]: 29.2%
- viability, T/C [28]: 34.9%
- viability, T/C [29]: 27.3%
- viability, T/C [30]: 37%
